The text below walks through data of patent publication EP3036295B1, “OFFSET PRINTING INKS COMPRISING AN ISOSORBIDE FATTY ACID ESTER SOLVENT” (OLEON NV, priority 2013, dated 2015).

Data set [1] is described as follows: Kauri butanol value (solvent power), ASTM D1133. The class given is physicochemical. The settings on record: Table 2, comparison with conventional solvents. The text has this: The "Kb value" is a measure of solvent power, and may be determined using the standardized test ASTM D1133. A high Kb value is an indication that the isosorbide ester is more capable in dissolving a wide range of resins of varying nature, and in higher concentrations, as compared to existing solvents used in offset printing inks. This is important as offset inks usually contain besides one or more pigments, approximately 40-65 wt. % of resin binders, for example rosin resins, maleic resins, hydrocarbon resins and alkyd resins, to ensure formation of a polymer film which binds the pigments or dyes together and provides resistance properties. Such resin binders are usually absent in inkjet printing inks. The offset printing ink may further comprise approximately 3 - 6 wt. % of additives, for example waxes, siccative agents and/or inhibitors. Without wanting to be bound by this theory, the applicants believe that this advantageous combination of properties, i.e. high wetting power of the pigments and high Kb value associated with good dissolution properties for the resin component present in the offset ink, must be attributed to the structure of the isosorbide moiety in the ester molecule. […]
In addition the inventors have observed that the Kb value may further be tuned by varying the nature of the carboxylic acid of the isosorbide ester and/or by varying the degree of esterification, in order to provide an ester with good solvent properties or an ester which functions much more as a diluent for the other components present in a formulation. […] Kauri resin is readily soluble in 1-butanol but is not soluble in many other solvents. […] Better solvents, for example toluene, may be added up to larger quantities before the solution becomes cloudy, and thus have a high Kauri butanol value. Weaker solvents like hexane may only be added in smaller quantities and will have a small Kauri butanol value. The Kauri butanol value (Kb value) is usually determined according to ASTM D1133 standardized test. […]

Data set [2] is described as follows: Surface tension, Du Noüy ring method. The class given is physicochemical. How it is done: The surface tension was measured using the Du Noüy ring method (http://www.kruss.de/en/theory/measurements/surface-tension/ring-method.html. The surface or interfacial tension is measured with the help of an optimally wettable ring suspended from a precision balance. A height-adjustable sample carrier is used to bring the liquid to be measured into contact with the probe. A force acts on the balance as soon as the probe touches the surface. If the length of the probe is known (circumference of ring or length of plate) the force measured can be used to calculate the interfacial or surface tension. A further requirement is that the probe must have a very high surface energy. This is why a platinum-iridium alloy is used for the ring and roughened platinum for the plate.
The liquid is raised until contact with the surface is registered. The sample is then lowered again so that the liquid film produced beneath the ring is stretched. As the film is stretched a maximum force is experienced; this is recorded in the measurement. At the maximum the force vector is exactly parallel to the direction of motion; at this moment the contact angle θ is 0°. In practice the distance is first increased until the area of maximum force has been passed through. The sample vessel containing the liquid is then moved back so that the maximum point is passed through a second time. The maximum force is only determined exactly on this return movement and used to calculate the tension. The calculation is made according to the following equation: σ = (Fmax −FV)/(L⋅cosθ) [formula] (σ =surface or interfacial tension; Fmax=maximum force; FV=weight of volume of liquid lifted; L=wetted length, θ=contact angle) The contact angle θ decreases as the extension increases and has the value 0° at the point of maximum force, this means that the term cos θ has the value 1.

The test system of data set [3] is bacteria, fungi and yeasts. The settings on record: WO 2013/017257 A1; cited from earlier work.

For the compound `C=C(C)[C@H]1CC=C(C)CC1` [D-limonene], the “Kauri butanol ASTM D 1133” value in data set [1] came to 67. Also, the “Surface tension Du Noüy ring method” value in data set [2] came out at 25 mN/m.

`Cc1ccccc1` [Toluene]: the “Kauri butanol ASTM D 1133” value in data set [1] is 105. Also, the “Surface tension Du Noüy ring method” value in data set [2] was 29 mN/m.

For the compound `O[C@@H]1CO[C@H]2[C@@H]1OC[C@@H]2O` [isosorbide, Isosorbide], the antimicrobial activity result in data set [3] is on record as “isosorbide itself, nor the dicaprylate, exhibit any such activity”.

As for Xylene, the “Kauri butanol ASTM D 1133” value in data set [1] is 90. For the same compound, the “Surface tension Du Noüy ring method” value in data set [2] was found to be 29 mN/m.

For isosorbide dicaprylate, in data set [3], the antimicrobial activity result was “isosorbide itself, nor the dicaprylate, exhibit any such activity”.

Consider isosorbide monocaprylate, for which the antimicrobial activity result in data set [3] is reported as “responsible for the antimicrobial activity observed”.
